Tested on: CYP3A4
Assay: Inhibition of tegoprazan metabolism in human liver microsomes by CYP inhibitors
Type: in vitro ADME
Settings: in-house data
From the text: The major metabolic pathway of tegoprazan is the liver, and a negligible amount is excreted by urine. Both in vitro and clinical results have elucidated that tegoprazan is a potential substrate of cytochrome P450 (CYP) 3A4. […] According to the label of tegoprazan, systemic exposure to tegoprazan increases when tegoprazan is co-administered with clarithromycin. Based on the in vitro and clinical data, it can be inferred that drug–drug interaction (DDI) between tegoprazan and CYP3A4 inhibitor may occur. However, the clinical DDI studies of tegoprazan conducted so far have been limited to the DDI between tegoprazan and clarithromycin or clarithromycin and amoxicillin, because tegoprazan is likely to be administered with these medications for Helicobacter pylori eradication. Considering the substantial prevalence of acid-related diseases, tegoprazan is likely to be administered in combination with various drugs. […]
The elimination of the PBPK model consisted of enzyme kinetic and renal clearance (Table 1). Intrinsic clearances (CLint) of tegoprazan by various CYPs were determined by an in vitro study that measured the fraction of CLint inhibited by adding the inhibitors of CYP1A2, CYP2C9, CYP2C19, CYP2D6, and CYP3A to human liver microsomes (in-house data). […]

CC(=O)N1CCN(c2ccc(OCC3COC(Cn4ccnc4)(c4ccc(Cl)cc4Cl)O3)cc2)CC1 (stereo not shown) [ketoconazole]
effect of CYP inhibitor on the metabolism of tegoprazan: significantly inhibited
